From patent US20130212744A1, “METHOD OF REDUCING INSECT-VECTORED VIRAL INFECTIONS” (priority 2010, published 2013)
Where two headings read alike, the source gives them in different places.

How the values were obtained:
Assay type in all cases: in vivo
[1] = system: whitefly Bemisia tabaci nymphs; test: Foliar use field trial on tomato, efficacy on whitefly nymphs; details: Bemisia tabaci, foliar
Description: (§1) Two studies were carried out in Elhasanya, Egypt in 2009 on tomato plants of the variety Fayrouz with the main goal to measure efficacy on the whitefly Bemisia tabaci. The plot size was 4.8 m^2 and 6 replicates were used in the trial. Products were applied 3 times on young tomato plants at BBCH stages 14, 17 and 51 at spray intervals between 12 and 19 days. The spray volume was at the first application 350 l/ha and later 500 l/ha. The evaluation of this study was done counting the adult whiteflies (Bemisia tabaci) as well as the nymphs and the eggs in each plot. In addition to the direct whitefly effect, visual symptoms of the virus, mainly TYLCV (tomato yellow leaf curl virus) were evaluated also.
(§2) ASM=Acibenzolar-S-methyl. WG 50=Actigard® 50WG, a water-dispersible granule with the active ingredient ASM CYNT=Cyantraniliprole. WG 40=Cyazypyr®, a water dispersable granule with the active ingredient CYNT. Results on whitefly adults. Trial 1

[2] = system: TYLCV (tomato yellow leaf curl virus); test: Foliar use field trial on tomato, infected leaf area by TYLC virus
Description: as §1, §2
Evaluation of percentage of infected leaf area by TYLC virus (average of 45 plants evaluated per treatment) Trial 1

[3] = system: whitefly Bemisia tabaci nymphs; test: Soil use (drench) field trial on tomato, efficacy on whitefly nymphs; details: for Emax at 12.5 g/ha: 12.5 g ai/ha; for Emax at 25 g/ha: 25 g ai/ha
Description: as §1, with “Two soil applied” for “Two”, “plants” for “plants of the variety Fayrouz”, “Products were applied 3 times on young tomato plants at BBCH stages 14, 17 and 51 at spray intervals between 12 and 19 days.” left out, “350” for “350 l/ha and later 500”

[4] = system: whitefly Bemisia tabaci adults; test: Foliar use field trial on tomato, efficacy on whitefly adults; details: Bemisia tabaci, foliar
Description: as §1, §2

With `CSC(=O)c1cccc2nnsc12` [ASM, S-methyl benzo[1,2,3]thiadiazole-7-carbothioate] the Emax ([1]; 12.5 g ai/hl, 5DAA2, Trial 1, read-out: % Efficacy on Nymphs) was 5%, the Emax ([1]; 12.5 g ai/hl, 5DAA2, Trial 2, read-out: % Efficacy on Nymphs) was 5% and the Emax ([1]; 12.5 g ai/hl, 5DAA3, Trial 1, read-out: % Efficacy on Nymphs) was 62%. The Emax ([1]; 12.5 g ai/hl, 5DAA3, Trial 2, read-out: % Efficacy on Nymphs) was 62%, the Emax ([1]; 12.5 g ai/hl, 10DAA2, Trial 1, read-out: % Efficacy on Nymphs) was 52% and the Emax ([1]; 12.5 g ai/hl, 10DAA2, Trial 2, read-out: % Efficacy on Nymphs) was 52%. The Emax ([1]; 12.5 g ai/hl, 10DAA3, Trial 1, read-out: % Efficacy on Nymphs) was 46%, the Emax ([1]; 12.5 g ai/hl, 10DAA3, Trial 2, read-out: % Efficacy on Nymphs) was 46% and the Emax ([1]; 12.5 g ai/hl, 15DAA3, Trial 1, read-out: % Efficacy on Nymphs) was 42%. It also gave an Emax ([1]; 12.5 g ai/hl, 15DAA3, Trial 2, read-out: % Efficacy on Nymphs) of 42%, an Emax ([1]; 12.5 g ai/hl, 20DAA3, Trial 1, read-out: % Efficacy on Nymphs) of 27% and an Emax ([1]; 12.5 g ai/hl, 20DAA3, Trial 2, read-out: % Efficacy on Nymphs) of 27%. For the same compound, the Emax ([1]; 12.5 g ai/hl, Avg, Trial 1, read-out: % Efficacy on Nymphs Avg % C) was 39%, the Emax ([1]; 25 g ai/hl, 5DAA2, Trial 1, read-out: % Efficacy on Nymphs) was 57% and the Emax ([1]; 25 g ai/hl, 5DAA2, Trial 2, read-out: % Efficacy on Nymphs) was 57%. It also gave an Emax ([1]; 25 g ai/hl, 5DAA3, Trial 1, read-out: % Efficacy on Nymphs) of 66%, an Emax ([1]; 25 g ai/hl, 5DAA3, Trial 2, read-out: % Efficacy on Nymphs) of 66% and an Emax ([1]; 25 g ai/hl, 10DAA2, Trial 1, read-out: % Efficacy on Nymphs) of 65%. The Emax ([1]; 25 g ai/hl, 10DAA2, Trial 2, read-out: % Efficacy on Nymphs) was 65%, the Emax ([1]; 25 g ai/hl, 10DAA3, Trial 1, read-out: % Efficacy on Nymphs) was 53% and the Emax ([1]; 25 g ai/hl, 10DAA3, Trial 2, read-out: % Efficacy on Nymphs) was 53%. For the same compound, the Emax ([1]; 25 g ai/hl, 15DAA3, Trial 1, read-out: % Efficacy on Nymphs) was 55%, the Emax ([1]; 25 g ai/hl, 15DAA3, Trial 2, read-out: % Efficacy on Nymphs) was 55% and the Emax ([1]; 25 g ai/hl, 20DAA3, Trial 1, read-out: % Efficacy on Nymphs) was 39%. For the same compound, the Emax ([1]; 25 g ai/hl, 20DAA3, Trial 2, read-out: % Efficacy on Nymphs) was 39%, the Emax ([1]; 25 g ai/hl, Avg, Trial 1, read-out: % Efficacy on Nymphs Avg % C) was 56% and the “% Infected Surface area with virus / plant” value ([2]; 12.5 g ai/hl, 5DAA2, Trial 1) was 0.0%. The “% Infected Surface area with virus / plant” value ([2]; 12.5 g ai/hl, 5DAA2, Trial 2) was 0.0%, the “% Infected Surface area with virus / plant” value ([2]; 12.5 g ai/hl, 5DAA3, Trial 1) was 1.0% and the “% Infected Surface area with virus / plant” value ([2]; 12.5 g ai/hl, 5DAA3, Trial 2) was 1.0%. For the same compound, the “% Infected Surface area with virus / plant” value ([2]; 12.5 g ai/hl, 10DAA3, Trial 1) was 9.6%, the “% Infected Surface area with virus / plant” value ([2]; 12.5 g ai/hl, 10DAA3, Trial 2) was 9.6% and the “% Infected Surface area with virus / plant” value ([2]; 12.5 g ai/hl, 15DAA3, Trial 1) was 9.9%. For the same compound, the “% Infected Surface area with virus / plant” value ([2]; 12.5 g ai/hl, 15DAA3, Trial 2) was 9.9%, the “% Infected Surface area with virus / plant” value ([2]; 12.5 g ai/hl, 20DAA3, Trial 1) was 10.7% and the “% Infected Surface area with virus / plant” value ([2]; 12.5 g ai/hl, 20DAA3, Trial 2) was 10.7%. The “% Infected Surface area with virus / plant” value ([2]; 12.5 g ai/hl, 24DAA3, Trial 1) was 14.4%, the “% Infected Surface area with virus / plant” value ([2]; 12.5 g ai/hl, 24DAA3, Trial 2) was 14.4% and the “% Infected Surface area with virus / plant” value ([2]; 25 g ai/hl, 5DAA2, Trial 1) was 0.0%. The “% Infected Surface area with virus / plant” value ([2]; 25 g ai/hl, 5DAA2, Trial 2) was 0.0%, the “% Infected Surface area with virus / plant” value ([2]; 25 g ai/hl, 5DAA3, Trial 1) was 0.0% and the “% Infected Surface area with virus / plant” value ([2]; 25 g ai/hl, 5DAA3, Trial 2) was 0.0%. For the same compound, the “% Infected Surface area with virus / plant” value ([2]; 25 g ai/hl, 10DAA3, Trial 1) was 3.3%, the “% Infected Surface area with virus / plant” value ([2]; 25 g ai/hl, 10DAA3, Trial 2) was 3.3% and the “% Infected Surface area with virus / plant” value ([2]; 25 g ai/hl, 15DAA3, Trial 1) was 4.7%. For the same compound, the “% Infected Surface area with virus / plant” value ([2]; 25 g ai/hl, 15DAA3, Trial 2) was 4.7%, the “% Infected Surface area with virus / plant” value ([2]; 25 g ai/hl, 20DAA3, Trial 1) was 5.0% and the “% Infected Surface area with virus / plant” value ([2]; 25 g ai/hl, 20DAA3, Trial 2) was 5.0%. The “% Infected Surface area with virus / plant” value ([2]; 25 g ai/hl, 24DAA3, Trial 1) was 7.2%, the “% Infected Surface area with virus / plant” value ([2]; 25 g ai/hl, 24DAA3, Trial 2) was 7.2% and the Emax at 12.5 g/ha ([3]; 25DAA1, Trial 2) was 29%. The Emax at 12.5 g/ha ([3]; 30DAA1, Trial 2) was 39%, the Emax at 12.5 g/ha ([3]; 35DAA1, Trial 2) was 22% and the Emax at 12.5 g/ha ([3]; 40DAA2, Trial 2) was 11%. It also gave an Emax at 25 g/ha ([3]; 25DAA1, Trial 2) of 69%, an Emax at 25 g/ha ([3]; 30DAA1, Trial 2) of 43% and an Emax at 25 g/ha ([3]; 35DAA1, Trial 2) of 14%. For the same compound, the Emax at 25 g/ha ([3]; 40DAA2, Trial 2) was 6%, the Emax at 12.5 g/ha ([3]; 240 h, 10DAA, Trial 1) was 47% and the Emax at 25 g/ha ([3]; 240 h, 10DAA, Trial 1) was 50%. The Emax at 12.5 g/ha ([3]; 360 h, 15DAA, Trial 1) was 21%, the Emax at 25 g/ha ([3]; 360 h, 15DAA, Trial 1) was 47% and the Emax at 12.5 g/ha ([3]; 480 h, 20DAA, Trial 1) was 31%. The Emax at 25 g/ha ([3]; 480 h, 20DAA, Trial 1) was 54%, the Emax at 12.5 g/ha ([3]; 600 h, 25DAA, Trial 1) was 60% and the Emax at 25 g/ha ([3]; 600 h, 25DAA, Trial 1) was 50%. It also gave an Emax at 12.5 g/ha ([3]; 720 h, 30DAA, Trial 1) of 47%, an Emax at 25 g/ha ([3]; 720 h, 30DAA, Trial 1) of 49% and an Emax at 12.5 g/ha ([3]; 840 h, 35DAA, Trial 1) of 41%. It also gave an Emax at 25 g/ha ([3]; 840 h, 35DAA, Trial 1) of 44%, an Emax at 12.5 g/ha ([3]; 960 h, 40DAA, Trial 1) of 28% and an Emax at 25 g/ha ([3]; 960 h, 40DAA, Trial 1) of 33%. The Emax ([4]; 12.5 g ai/hl, 5DAA1, Trial 1, read-out: % Efficacy on Adults) was 53%, the Emax ([4]; 12.5 g ai/hl, 5DAA1, Trial 2, read-out: % Efficacy on Adults) was 53% and the Emax ([4]; 12.5 g ai/hl, 5DAA2, Trial 1, read-out: % Efficacy on Adults) was 45%. The Emax ([4]; 12.5 g ai/hl, 5DAA2, Trial 2, read-out: % Efficacy on Adults) was 45%, the Emax ([4]; 12.5 g ai/hl, 5DAA3, Trial 1, read-out: % Efficacy on Adults) was 55% and the Emax ([4]; 12.5 g ai/hl, 5DAA3, Trial 2, read-out: % Efficacy on Adults) was 55%. The Emax ([4]; 12.5 g ai/hl, 10DAA1, Trial 1, read-out: % Efficacy on Adults) was 43%, the Emax ([4]; 12.5 g ai/hl, 10DAA1, Trial 2, read-out: % Efficacy on Adults) was 43% and the Emax ([4]; 12.5 g ai/hl, 10DAA2, Trial 1, read-out: % Efficacy on Adults) was 37%. The Emax ([4]; 12.5 g ai/hl, 10DAA2, Trial 2, read-out: % Efficacy on Adults) was 37%, the Emax ([4]; 12.5 g ai/hl, 10DAA3, Trial 1, read-out: % Efficacy on Adults) was 46% and the Emax ([4]; 12.5 g ai/hl, 10DAA3, Trial 2, read-out: % Efficacy on Adults) was 46%. The Emax ([4]; 12.5 g ai/hl, 15DAA3, Trial 1, read-out: % Efficacy on Adults) was 38%, the Emax ([4]; 12.5 g ai/hl, 15DAA3, Trial 2, read-out: % Efficacy on Adults) was 38% and the Emax ([4]; 12.5 g ai/hl, 20DAA3, Trial 1, read-out: % Efficacy on Adults) was 12%. It also gave an Emax ([4]; 12.5 g ai/hl, 20DAA3, Trial 2, read-out: % Efficacy on Adults) of 12%, an Emax ([4]; 12.5 g ai/hl, Avg, Trial 1, read-out: % Efficacy on Adults Avg % C) of 41% and an Emax ([4]; 25 g ai/hl, 5DAA1, Trial 1, read-out: % Efficacy on Adults) of 59%. The Emax ([4]; 25 g ai/hl, 5DAA1, Trial 2, read-out: % Efficacy on Adults) was 59%, the Emax ([4]; 25 g ai/hl, 5DAA2, Trial 1, read-out: % Efficacy on Adults) was 52% and the Emax ([4]; 25 g ai/hl, 5DAA2, Trial 2, read-out: % Efficacy on Adults) was 52%. It also gave an Emax ([4]; 25 g ai/hl, 5DAA3, Trial 1, read-out: % Efficacy on Adults) of 57%, an Emax ([4]; 25 g ai/hl, 5DAA3, Trial 2, read-out: % Efficacy on Adults) of 57% and an Emax ([4]; 25 g ai/hl, 10DAA1, Trial 1, read-out: % Efficacy on Adults) of 43%. It also gave an Emax ([4]; 25 g ai/hl, 10DAA1, Trial 2, read-out: % Efficacy on Adults) of 43%, an Emax ([4]; 25 g ai/hl, 10DAA2, Trial 1, read-out: % Efficacy on Adults) of 39% and an Emax ([4]; 25 g ai/hl, 10DAA2, Trial 2, read-out: % Efficacy on Adults) of 39%. The Emax ([4]; 25 g ai/hl, 10DAA3, Trial 1, read-out: % Efficacy on Adults) was 49%, the Emax ([4]; 25 g ai/hl, 10DAA3, Trial 2, read-out: % Efficacy on Adults) was 49% and the Emax ([4]; 25 g ai/hl, 15DAA3, Trial 1, read-out: % Efficacy on Adults) was 40%. It also gave an Emax ([4]; 25 g ai/hl, 15DAA3, Trial 2, read-out: % Efficacy on Adults) of 40%, an Emax ([4]; 25 g ai/hl, 20DAA3, Trial 1, read-out: % Efficacy on Adults) of 22% and an Emax ([4]; 25 g ai/hl, 20DAA3, Trial 2, read-out: % Efficacy on Adults) of 22%. For the same compound, the Emax ([4]; 25 g ai/hl, Avg, Trial 1, read-out: % Efficacy on Adults Avg % C) was 45%.
